According to ChEMBL document CHEMBL3885861, “Open TG-GATES”:

Organism: Rattus norvegicus
Assay: Open TG-GATES - Regimen: Single
Assay type: toxicity, organism-based, Sprague-Dawley
Parameters: regimen Single, gender Male, age 6 weeks
Details: in vivo, po, 300 mg/kg, route gavage, dose level High; for APTT / Bas / Eos / Fbg / Hb / Ht / Lym / MCH / MCHC / MCV / Mono / Neu / PT / Plat / RBC / Ret / WBC: tissue Blood; for KIDNEY_L / KIDNEY_R / KIDNEY_TOTAL: tissue Kidney; for LIVER: tissue Liver; for A/G / ALP / ALT / AST / BUN / CRE / Ca / Cl / DBIL / GLC / IP / K / LDH / Na / PL / RALB / TBIL / TC / TG / TP / gamma-GTP: tissue Plasma

SMILES: CCOC(=O)C(C)(C)Oc1ccc(Cl)cc1 [CLOFIBRATE]
- TERMINAL_BW (3 h): 225.9 g
- APTT (3 h): 19.5 s
- Bas (3 h): 0%
- Eos (3 h): 1%
- Fbg (3 h): 231.2 mg/dL
- Hb (3 h): 13.5 g/dL
- Ht (3 h): 39.3%
- Lym (3 h): 78%
- MCH (3 h): 21.4 pg
- MCHC (3 h): 34.2%
- MCV (3 h): 62.5 fL
- Mono (3 h): 3%
- Neu (3 h): 17.2%
- PT (3 h): 12.5 s
- Plat (3 h): 127.2 x10_4/uL
- RBC (3 h): 629.6 x10_4/ul
- Ret (3 h): 7.9%
- WBC (3 h): 103.9 x10_2/uL
- KIDNEY_L (3 h): 1 g
- KIDNEY_R (3 h): 1 g
- KIDNEY_TOTAL (3 h): 2 g
- LIVER (3 h): 9.8 g
- A/G (3 h): 1.6
- ALP (3 h): 991.6 IU/L
- ALT (3 h): 41.8 IU/L
- AST (3 h): 73.2 IU/L
- BUN (3 h): 10.4 mg/dL
- CRE (3 h): 0.4 mg/dL
- Ca (3 h): 11 mg/dL
- Cl (3 h): 102.4 meq/L
- DBIL (3 h): 0.1 mg/dL
- GLC (3 h): 190 mg/dL
- IP (3 h): 9.4 mg/dL
- K (3 h): 3.6 meq/L
- LDH (3 h): 260.6 IU/L
- Na (3 h): 140.4 meq/L
- PL (3 h): 149.6 mg/dL
- RALB (3 h): 3.5 g/dL
- TBIL (3 h): 0.2 mg/dL
- TC (3 h): 73 mg/dL
- TG (3 h): 76.2 mg/dL
- TP (3 h): 5.6 g/dL
- gamma-GTP (3 h): 0.6 IU/L
- TERMINAL_BW (6 h): 227.7 g
- APTT (6 h): 18.2 s
- Bas (6 h): 0%
- Eos (6 h): 1%
- Fbg (6 h): 240.8 mg/dL
- Hb (6 h): 13.4 g/dL
- Ht (6 h): 38.8%
- Lym (6 h): 76.4%
- MCH (6 h): 21.1 pg
- MCHC (6 h): 34.5%
- MCV (6 h): 61.3 fL
- Mono (6 h): 3.2%
- Neu (6 h): 18.4%
- PT (6 h): 12.7 s
- Plat (6 h): 134.1 x10_4/uL
- RBC (6 h): 633.8 x10_4/ul
- Ret (6 h): 7.4%
- WBC (6 h): 83.7 x10_2/uL
- KIDNEY_L (6 h): 1 g
- KIDNEY_R (6 h): 1 g
- KIDNEY_TOTAL (6 h): 2 g
- LIVER (6 h): 9.5 g
- A/G (6 h): 1.6
- ALP (6 h): 1008 IU/L
- ALT (6 h): 35.8 IU/L
- AST (6 h): 74.4 IU/L
- BUN (6 h): 10.2 mg/dL
- CRE (6 h): 0.4 mg/dL
- Ca (6 h): 10.9 mg/dL
- Cl (6 h): 102.8 meq/L
- DBIL (6 h): 0.09 mg/dL
- GLC (6 h): 195.6 mg/dL
- IP (6 h): 9.5 mg/dL
- K (6 h): 4 meq/L
- LDH (6 h): 218.8 IU/L
- Na (6 h): 140.4 meq/L
- PL (6 h): 135 mg/dL
- RALB (6 h): 3.5 g/dL
- TBIL (6 h): 0.2 mg/dL
- TC (6 h): 71 mg/dL
- TG (6 h): 96.2 mg/dL
- TP (6 h): 5.7 g/dL
- gamma-GTP (6 h): 1.2 IU/L
- TERMINAL_BW (9 h): 229.4 g
- APTT (9 h): 18 s
- Bas (9 h): 0%
- Eos (9 h): 1%
- Fbg (9 h): 235.6 mg/dL
- Hb (9 h): 13.1 g/dL
- Ht (9 h): 38.1%
- Lym (9 h): 72.8%
- MCH (9 h): 21 pg
- MCHC (9 h): 34.5%
- MCV (9 h): 61 fL
- Mono (9 h): 2.8%
- Neu (9 h): 22.8%
- PT (9 h): 12.9 s
- Plat (9 h): 140.4 x10_4/uL
- RBC (9 h): 625.6 x10_4/ul
- Ret (9 h): 7.1%
- WBC (9 h): 69.9 x10_2/uL
- KIDNEY_L (9 h): 1 g
- KIDNEY_R (9 h): 1 g
- KIDNEY_TOTAL (9 h): 2 g
- LIVER (9 h): 9.4 g
- A/G (9 h): 1.5
- ALP (9 h): 1054.2 IU/L
- ALT (9 h): 33 IU/L
- AST (9 h): 70.4 IU/L
- BUN (9 h): 10.8 mg/dL
- CRE (9 h): 0.4 mg/dL
- Ca (9 h): 10.5 mg/dL
- Cl (9 h): 102.4 meq/L
- DBIL (9 h): 0.09 mg/dL
- GLC (9 h): 201 mg/dL
- IP (9 h): 10.3 mg/dL
- K (9 h): 3.7 meq/L
- LDH (9 h): 203.6 IU/L
- Na (9 h): 140.4 meq/L
- PL (9 h): 116 mg/dL
- RALB (9 h): 3.3 g/dL
- TBIL (9 h): 0.1 mg/dL
- TC (9 h): 53.8 mg/dL
- TG (9 h): 81.8 mg/dL
- TP (9 h): 5.5 g/dL
- gamma-GTP (9 h): 1 IU/L
- TERMINAL_BW (24 h): 236.8 g
- APTT (24 h): 19.3 s
- Bas (24 h): 0%
- Eos (24 h): 0.8%
- Fbg (24 h): 218.2 mg/dL
- Hb (24 h): 13.5 g/dL
- Ht (24 h): 38.6%
- Lym (24 h): 77.2%
- MCH (24 h): 21.2 pg
- MCHC (24 h): 34.9%
- MCV (24 h): 60.7 fL
- Mono (24 h): 4%
- Neu (24 h): 17.6%
- PT (24 h): 13.3 s
- Plat (24 h): 127.2 x10_4/uL
- RBC (24 h): 636.8 x10_4/ul
- Ret (24 h): 6.4%
- WBC (24 h): 102.9 x10_2/uL
- KIDNEY_L (24 h): 1 g
- KIDNEY_R (24 h): 1.1 g
- KIDNEY_TOTAL (24 h): 2.1 g
- LIVER (24 h): 12.3 g
- A/G (24 h): 1.7
- ALP (24 h): 1007.8 IU/L
- ALT (24 h): 38 IU/L
- AST (24 h): 79 IU/L
- BUN (24 h): 15.4 mg/dL
- CRE (24 h): 0.4 mg/dL
- Ca (24 h): 10.6 mg/dL
- Cl (24 h): 100.4 meq/L
- DBIL (24 h): 0.086 mg/dL
- GLC (24 h): 201.2 mg/dL
- IP (24 h): 7.5 mg/dL
- K (24 h): 3.8 meq/L
- LDH (24 h): 223.4 IU/L
- Na (24 h): 140 meq/L
- PL (24 h): 104.8 mg/dL
- RALB (24 h): 3.5 g/dL
- TBIL (24 h): 0.1 mg/dL
- TC (24 h): 43.6 mg/dL
- TG (24 h): 103.8 mg/dL
- TP (24 h): 5.5 g/dL
- gamma-GTP (24 h): 1.4 IU/L
